The data set in a line: Volume of distribution at steady state in mouse at 5 mg/kg, iv measured after 8 hrs. The data set is classed as ADME, organism-based. The settings on record: in vivo, read-out: Vdss.

Turning to `C=C[C@]1(C)C[C@@H](OC(=O)CSc2cc(=O)oc3cc(OC)ccc23)[C@]2(C)[C@H](C)CC[C@]3(CCC(=O)[C@H]32)[C@@H](C)[C@@H]1O`, the Vd is 1.76 L/kg.
